Patent US11584744B2 (UNIVERSITY OF WASHINGTON, priority 2017, dated 2023)
Values after ≈ are worked out from the molar mass of the structure shown. Values joined by “and” are separate entries in the source; they are usually repeats but may differ in a detail not shown here. Identical values can stand only once. Like-named read-outs stand apart in the source and are kept apart here.

What was measured:
[1] = tested on: S. aureus VISA (ATCC 700699); experiment: MIC susceptibility testing; assay type: cell-based; details: Staphylococcus aureus; read-out: S. aureus VISA (ATCC 700699) MIC
Outline: (§1)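 CLSI broth microdilution with two-fold compound dilutions, in triplicate; cells added in medium at 1×10^6 CFUs/mL, DMSO ≤0.5%. Media: MHB for S. aureus, CA-MHB for E. coli and E. faecium, CA-MHB plus 3% laked horse blood for S. pyogenes (5% CO2).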

[2] = tested on: S. pneumoniae (ATCC 49619); experiment: MIC susceptibility testing; assay type: cell-based; details: Streptococcus pneumoniae, ATCC49619, 18 h; medium with 3% laked horse blood; read-out: S. pneumoniae (ATCC 49619) MIC
[3] = tested on: S. aureus MSSA (ATCC 19636); experiment: MIC susceptibility testing; assay type: cell-based; details: Staphylococcus aureus; read-out: S. aureus MSSA (ATCC 19636) MIC
Outline: as §1

[4] = tested on: E. coli (ATCC 25922); experiment: MIC susceptibility testing; assay type: cell-based; details: Escherichia coli, ATCC25922
Outline: as §1

[5] = tested on: P. aeruginosa (ATCC 27853); experiment: MIC susceptibility testing; assay type: cell-based; details: Pseudomonas aeruginosa, ATCC27853
[6] = mice infected with T. brucei, 50 mg/kg PO twice-per-day for 10 days; previous publication; cited from earlier work
[7] = tested on: S. aureus (ATCC 29213); experiment: Neutropenic murine S. aureus thigh infection model; assay type: in vivo, Staphylococcus aureus; details: 75 mg/kg orally ×2; for reduction of bacterial load below stasis level: neutropenic mouse
Description: Murine thigh infection model. Animal studies were approved by the Institutional Animal Care and Use Committee at the University of Washington, Seattle. Female specific pathogen free CD1 mice were obtained from Charles River (Wilmington, Mass.) weighing 23-27 grams and allowed at least 3 days to acclimate prior to study. Mice had access to food and water ad libitum. Neutropenia was induced by administering cyclophosphamide monohydrate (Sigma Aldrich C7397; St. Louis, Mo.) via IP injection 4 days (at 150 mg/kg) and 1 day (at 100 mg/kg) prior to infection. Neutropenic status was confirmed by neutrophil count <100 cells/mm^3.
Overnight culture of S. aureus (ATCC strain 29213) was diluted 1:100 in MHB and incubated until reaching mid-log phase (OD600<0.750). The inoculum was prepared by pelleting log-phase culture and re-suspending in sterile dPBS. The culture was adjusted to OD600 of 0.200 and diluted 1:100 in sterile dPBS correlating to an inoculum of ˜5*10^5 CFU/50 μL. The mice were infected by an intramuscular injection of 50 μL in the right posterior thigh while under isoflurane gas anesthesia. At 1 h post infection, one vehicle group was sacrificed for determination of initial inoculum ([…] level of infection). Mice were dosed at 2 and 12 h post-infection with test compounds (below); they received a SC dose of 5 mg/kg ketoprofen at 2 h post-infection for pain management. Mice were sacrificed at 24 h post-infection; the thigh muscle was sterilely removed, weighed, homogenized in 5 mLs dPBS, serially diluted, plated on tryptic soy agar in duplicate, and incubated overnight at 37° C. Colonies were counted to quantify the bacterial load in CFUs per gram of thigh tissue.
Vancomycin was given at 100 mg/kg SC in 100 μL in a 0.9% saline solution. […] Test compounds were administered PO in 200 μL of vehicle containing 60% Phosal 53 MCT (Lipoid, Ludwigshafen Germany), 30% PEG400 (Sigma Aldrich, St. Louis, Mo.), and 10% EtOH (Decon Laboratories, King of Prussia, Pa.).
Efficacy studies in mice: Selected compounds were tested for in vivo efficacy in the neutropenic S. aureus thigh infection model (9). Mice were immunosuppressed with cyclophosphamide then infected in a thigh with 5×10^5 S. aureus (ATCC 29213). Compounds were dosed orally with 75 mg/kg at 2 and 12 h post-infection. At 24 h, thighs were harvested for CFU counts.

[8] = tested on: T. cruzi; experiment: T. cruzi growth inhibition; assay type: cell-based, Trypanosoma cruzi; details: read-out: (E) T. cruzi EC50
[9] = tested on: T. brucei; experiment: T. brucei growth inhibition; assay type: cell-based, Trypanosoma brucei; details: read-out: (D) T. brucei EC50
[10] = tested on: G. lamblia (ATCC GL50803); experiment: G. lamblia growth inhibition; assay type: cell-based; details: Giardia duodenalis, read-out: (K) G. lamblia (ATCC GL50803) EC50
[11] = tested on: Cryptosporidium; experiment: C. parvum infection model, NOD SCID Gamma mice, oocysts in stool by PCR; assay type: in vivo, Cryptosporidium parvum; details: treated 5 days
Method: (§2) Several compounds of the disclosure were also evaluated in vivo in C. parvum infection model and in acute T. cruzi infection model. Immunosuppressed mice (NOD SCID Gamma) with Cryptosporidium infection were treated for 5 days with test compounds. Cryptosporidium oocysts were quantified in stool by PCR. […] In FIG. 4, gamma-IFN knockout mice were used and, similarly, treated for 5 days with the test compound 2093. […] With respect to the T. cruzi, an efficacy model was employed in which the infection was monitored using bioluminescent T. cruz. With vehicle treatment, all mice died by day 14 post-infection.

[12] = tested on: Cryptosporidium parvum; experiment: C. parvum parasite burden model, gamma-IFN knockout mice, bioluminescence readout; assay type: in vivo
Method: FIG. 4 illustrates efficacy of MetRS inhibitors in a parasite burden model of Cryptosporidium parvum infection. About 1,000-fold reduction of parasite burden was observed after treatment by 2093.
as §2

Fc1ccc2nc(NCCCNCc3cc(Cl)cc(Cl)c3)[nH]c2n1 [Compound 1614, [(3,5-dichlorophenyl)methyl][3-({5-fluoro-3H-imidazo[4,5-b]pyridin-2-yl}amino)propyl]amine]
MIC [1]: 10 µg/mL (≈ 27.2 µM) | MIC [2]: > 10 µg/mL | MIC [3]: 2.5 µg/mL (≈ 6.79 µM) | MIC [4]: > 10 µg/mL | MIC [5]: > 10 µg/mL | effects on weight, grooming, or body condition [6]: no deleterious effects on weight, grooming, or body condition

Fc1ccc2nc(NCCCN[C@@H]3CCNc4c(Cl)cc(Cl)cc43)[nH]c2n1 [Compound 1717, (4R)-6,8-dichloro—N-[3-({5-fluoro-3H-imidazo[4,5-b]pyridin-2-yl}amino)propyl]-1,2,3,4-tetrahydroquinolin-4-amine, reference compound]
efficacy in thigh infection model [7]: significant reduction of bacterial load below the stasis level | reduction of bacterial load below stasis level [7]: approximately 2 log | MIC [1]: 0.156 µg/mL (≈ 0.381 µM) | MIC [2]: > 20 µg/mL | MIC [3]: 0.078 µg/mL (≈ 0.191 µM) | MIC [4]: > 10 µg/mL | MIC [5]: > 10 µg/mL | effects on weight, grooming, or body condition [6]: no deleterious effects on weight, grooming, or body condition

CCn1c(Cc2ccc(Cl)cc2Cl)cn(Cc2nc3nc(F)ccc3[nH]2)c1=O [Compound 2062, 4-[(2,4-dichlorophenyl)methyl]-3-ethyl-1-({5-fluoro-1H-imidazo[4,5-b]pyridin-2-yl}methyl)-2,3-dihydro-1H-imidazol-2-one]
EC50 ([8]; Trypanosoma cruzi): 85.2 nM | EC50 [8]: 98.9 nM and 90.8 nM | EC50 [9]: 3.48 nM

CCn1c(Cc2ccc(OC)cc2Cl)cn(Cc2nc3nc(Cl)ccc3[nH]2)c1=O [Compound 2093, 1-({5-chloro-1H-imidazo[4,5-b]pyridin-2-yl}methyl)-4-[(2-chloro-4-methoxyphenyl)methyl]-3-ethyl-2,3-dihydro-1H-imidazol-2-one]
EC50 [10]: 10 nM | EC50 ([8]; Trypanosoma cruzi): 8.28 nM | EC50 [8]: 5.81 nM | suppression of infection [11]: over 99% | reduction of parasite burden ([12]; FIG. 4): About 1,000 fold | drop in fecal parasites ([12]; gamma-IFN knockout mice, treated 5 days, bioluminescence): > 4 log | efficacy in thigh infection model [7]: weaker activity than the other MetRS inhibitors evaluated | MIC [1]: 0.313 µg/mL (≈ 0.724 µM) | MIC [2]: > 20 µg/mL | MIC [3]: 0.313 µg/mL (≈ 0.724 µM)

CCn1c(Cc2ccc(OC)cc2Cl)cn(Cc2nc3nc(F)ccc3[nH]2)c1=O [Compound 2114, 4-[(2-chloro-4-methoxyphenyl)methyl]-3-ethyl-1-({5-fluoro-1H-imidazo[4,5-b]pyridin-2-yl}methyl)-2,3-dihydro-1H-imidazol-2-one]
EC50 ([8]; Trypanosoma cruzi): 25.9 nM | EC50 [8]: 23.2 nM | EC50 ([9]; Trypanosoma brucei): 1.4 nM

COc1cc(Cl)c(-c2cccc3nc(Cc4nc5nc(Cl)ccc5[nH]4)cn23)cc1OC [Compound 2144, 2-({5-chloro-1H-imidazo[4,5-b]pyridin-2-yl}methyl)-5-(2-chloro-4,5-dimethoxyphenyl)imidazo[1,2-a]pyridine]
EC50 ([8]; Trypanosoma cruzi): 13.5 nM | EC50 [8]: 7.79 nM | efficacy in thigh infection model [7]: significant reduction of bacterial load below the stasis level | reduction of bacterial load below stasis level [7]: approximately 2 log | MIC [1]: 0.039 µg/mL (≈ 0.0858 µM) | MIC [2]: > 20 µg/mL | MIC [3]: 0.078 µg/mL (≈ 0.172 µM)

CC(=O)NC[C@H]1CN(c2ccc(N3CCOCC3)c(F)c2)C(=O)O1 [LNZ, linezolid]
MIC [1]: 1.25 µg/mL (≈ 3.71 µM) | MIC [2]: 1.25 µg/mL (≈ 3.71 µM) | MIC [3]: 1.25 µg/mL (≈ 3.71 µM)
